Data from US20180172683A1, “METHODS FOR ANALYZING THE INTERACTION BETWEEN A TARGET PROTEIN AND A LIGAND” (UNIVERSITY OF SOUTHERN CALIFORNIA, priority 2015, published 2018).
Peptide text beside a SMILES is read from it. * marks the point of attachment. Biotin = O=C1N[C@H]2[C@H](CS[C@H]2CCCCC(=O)*)N1

Columns and labels:
Bcl-xL [1] = target: T1, Bcl-xL (Homo sapiens, UniProt Q07817); test: Radiolabeled off-rate assay on immobilized Bcl-xL; type: binding
T1 construct: The gene for the first 209 amino acids of Bcl-xL; made in house; host or cells: E. coli BL21(DE3), pET24a vector
T1 sequence (Q07817 1-209 limits assumed): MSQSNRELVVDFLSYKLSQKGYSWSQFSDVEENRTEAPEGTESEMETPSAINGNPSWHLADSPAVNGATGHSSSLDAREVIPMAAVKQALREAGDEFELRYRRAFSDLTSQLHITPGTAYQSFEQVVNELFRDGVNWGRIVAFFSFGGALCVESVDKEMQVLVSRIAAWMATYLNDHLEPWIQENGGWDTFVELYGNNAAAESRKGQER
Source text: Radiolabeled Off-Rate Assay. The DNA sequences coding for the peptides were ordered from Integrated DNA Technologies (IDT). Each DNA construct contained a T7 RNA Polymerase promoter, and a 5′ deletion mutant of the Tobacco Mosaic Virus (ΔTMV). The C-terminal portion of the peptides were elongated with a flexible serine-glycine linker (six amino acids long) and an HA tag. After gel purification using urea-PAGE, the DNA sequences were PCR amplified using Taq polymerase and in vitro transcribed into mRNA using T7 RNA polymerase. After transcription, the mRNA was urea-PAGE purified and resuspended in deionized water to a final concentration of 30 μM.
The samples were in vitro translated at 30° C. for 1 hour in the translation solution—150 mM KOAc, 750 μM MgCl2, 2 μM mRNA, 1× translation mix (20 mM Hepes-KOH pH 7.6, 100 mM creatine phosphate, 2 mM DTT, and 312.5 μM of each amino acid excluding methionine), ^35S-labeled methionine (Perkin Elmer; 20 μCi for each 25 μL of translation), and 60% (v/v) rabbit reticulocyte lysate. Radiolabeled peptides were purified using magnetic HA beads (Life Technologies) and eluted with 100 μL, 50 mM NaOH, then immediately neutralized with 20 μL of 1 M Tris-HCl, pH 8.0.
The radiolabeled peptides were allowed to bind to 30 pmol immobilized Bcl-xL for 1 hour in sample buffer (1×PBS, 1% (w/v) BSA, 0.1% (v/v) Tween 20, 10 μM biotin). The beads were magnetically separated, and washed 5× with sample buffer. The beads were resuspended in 1 mL of sample buffer containing 3 μM non-biotinylated Bcl-xL (˜100× molar excess relative to immobilized biotinylated Bcl-xL). At various time points, 100 μL of slurry was removed and the beads were magnetically separated and washed. The percent remaining at each time point was determined by dividing the counts per minute (cpm) on beads by total cpm (beads+washes). The peptide off-rate was determined by an exponential fit of the Percent counts on beads vs. Time (s).
The peptide ligands were made using a C-terminal HA tag, and affinity purified.

Bcl-xL [2] = target: T1, Bcl-xL; test: High-throughput sequencing kinetic (HTSK) on- and off-rates of mRNA-peptide fusions; type: binding; settings: mRNA-peptide fusions, next-generation sequencing
Procedure: Preparing the pools of fusion ligands. The DNAs for the final enriched pools from the extension and the doped selection against Bcl-xL were generated. The DNA pools were PCR amplified using Taq polymerase and in vitro transcribed into mRNA using T7 RNA polymerase (Liu et al., Methods Enzymol. 318, 268-293 (2000)). After transcription, the mRNA was urea-PAGE purified and resuspended in deionized water to a final concentration of 30 μM. The mRNA was then ligated to fluorescein-F30P (phosphate-dA21-[dT-fluor]-[C9]3-dAdCdCP; where [dT-fluor] is fluorescein dT (Glen Research), [C9] is spacer 9 (Glen Research), and P is puromycin (Glen Research); synthesized at the Keck Oligo Facility at Yale) using T4 DNA ligase (Takahashi et al., Methods Mol. Biol. 535, 293-314 (2009)). The ligation was performed using a splint complementary to the 3′ end of the RNA and the 5′ end of the DNA-linker. The ligated mRNA was urea-PAGE purified and resuspended in deionized water to final concentration of 30 μM. The samples were in vitro translated in the translation solution-150 mM KOAc, 750 μM MgCl2, 2 μM mRNA, in 1× translation mix (20 mM Hepes-KOH pH 7.6, 100 mM creatine phosphate, 2 mM DTT, and 312.5 μM of each amino acid) and 60% (v/v) rabbit reticulocyte lysate. To prepare radiolabeled peptides or proteins, non-labeled methionine was substituted with ^35S-labeled methionine (Perkin Elmer; 20 μCi for each 25 μL of translation). The translation reactions were incubated at 30° C. for one hour. To form mRNA-protein fusions, KCl and MgCl2 were added to the reaction to final concentrations of 250 mM and 30 mM respectively after translation, and the samples were frozen at −20° C.
To purify the fusion molecules, 100 μL of dT cellulose (25% (v/v) slurry, GE Healthcare) in isolation buffer (100 mM Tris-HCl pH 8.0, 1 M NaCl, 0.2% (v/v) Triton X-100) was added and incubated for 1 hour. The beads were washed five times with 700 μL of isolation buffer, and the fusions were eluted with 3×80 μL of 65° C. water and desalted through Centrisep columns (Princeton Separations). The desalted fusions were adjusted to 1×RT buffer (50 mM Tris-HCl pH 8.3, 75 mM KCl, 3 mM MgCl2, […], […],) and the sample was heated to 65° C. for 5 minutes and cooled on ice to anneal the 3′ primer. After cooling, […] of Superscript II enzyme was added and the reaction incubated at 42° C. for one hour. […]
On- and off-rate experiments. […] The radiolabeled samples were washed 3×, and the beads were counted via a scintillation counter.
To obtain the HTSK off-rates, after the kinetic on-rate experiment, the remaining beads were washed 5× with selection buffer. […] The radiolabeled samples were washed and counted via a scintillation counter. […]

[3] = in vitro translated radiolabeled peptides with C-terminal HA tag, read-out: Peptide koff
[4] = radiolabeled peptide-mRNA fusions bound to immobilized Bcl-xL, read-out: koff

| SMILES | koff (Bcl-xL [1]; [3]) | koff (Bcl-xL [1]; [4]) | koff (Bcl-xL [2]) |
| --- | --- | --- | --- |
| CC[C@H](C)[C@H](NC(=O)[C@H](C)NC(=O)[C@@H](NC(=O)[C@@H](N)CCSC)[C@@H](C)CC)C(=O)N[C@@H](CO)C(=O)N[C@H](C(=O)N[C@H](C(=O)N[C@@H](Cc1ccc(O)cc1)C(=O)N[C@@H](CC(N)=O)C(=O)N[C@@H](Cc1ccc(O)cc1)C(=O)N[C@@H](CCCCN)C(=O)N[C@@H](CCCCN)C(=O)N[C@@H](C)C(=O)N[C@@H](C)C(=O)N[C@@H](CC(=O)O)C(=O)N[C@@H](Cc1c[nH]cn1)C(=O)N[C@@H](Cc1ccc(O)cc1)C(=O)N[C@@H](C)C(=O)N[C@@H](CCSC)C(=O)N[C@H](C(=O)N[C@@H](CCCCN)C(=O)NCC(=O)N[C@@H](CO)C(=O)N[C@@H](CCCCNC(=O)CCCC[C@@H]1SC[C@@H]2NC(=O)N[C@@H]21)C(N)=O)[C@@H](C)O)[C@@H](C)CC)[C@@H](C)O [D1] (H-MIAISTIYNYKKAADHYAMTKGSK(Biotin)-NH2) | 2e-06 s⁻¹ | 2e-06 s⁻¹ | 1e-06 s⁻¹ |
| CC[C@H](C)[C@H](NC(=O)[C@@H](NC(=O)[C@@H](NC(=O)[C@@H](NC(=O)[C@H](CCC(=O)O)NC(=O)[C@@H](NC(=O)[C@@H](N)CCSC)[C@@H](C)CC)[C@@H](C)O)[C@@H](C)CC)[C@@H](C)O)C(=O)N[C@@H](Cc1ccc(O)cc1)C(=O)N[C@@H](CC(N)=O)C(=O)N[C@@H](Cc1ccc(O)cc1)C(=O)N[C@@H](CCCCN)C(=O)N[C@@H](CCCCN)C(=O)N[C@@H](C)C(=O)N[C@@H](C)C(=O)N[C@@H](CC(=O)O)C(=O)N[C@@H](Cc1c[nH]cn1)C(=O)N[C@@H](Cc1ccccc1)C(=O)N[C@@H](CO)C(=O)N[C@@H](CCSC)C(=O)N[C@@H](CO)C(=O)N[C@@H](CCSC)C(=O)NCC(=O)N[C@@H](CO)C(=O)N[C@@H](CCCCNC(=O)CCCC[C@@H]1SC[C@@H]2NC(=O)N[C@@H]21)C(N)=O [E1] (H-MIETITIYNYKKAADHFSMSMGSK(Biotin)-NH2) | 7.4e-06 s⁻¹ | 1.2e-05 s⁻¹ | 2.5e-06 s⁻¹ |
